Results from US8633205B2, “Substituted pyrrolo[2,3-d]pyrimidines as inhibitors of protein kinases” (Vertex Pharmaceuticals Incorporated, priority 2005, dated 2014).

Experiments:
Format in all cases: biochemical
[1] = target: T1, JAK3 (Homo sapiens, UniProt P52333); assay: JAK3 Inhibition Assay; conditions: 1 μM poly(Glu)4Tyr, 5 μM ATP, 1 nM JAK3, 25 °C; read-out: JAK3 enzyme inhibition (Ki)
T1 sequence (P52333 1-1124): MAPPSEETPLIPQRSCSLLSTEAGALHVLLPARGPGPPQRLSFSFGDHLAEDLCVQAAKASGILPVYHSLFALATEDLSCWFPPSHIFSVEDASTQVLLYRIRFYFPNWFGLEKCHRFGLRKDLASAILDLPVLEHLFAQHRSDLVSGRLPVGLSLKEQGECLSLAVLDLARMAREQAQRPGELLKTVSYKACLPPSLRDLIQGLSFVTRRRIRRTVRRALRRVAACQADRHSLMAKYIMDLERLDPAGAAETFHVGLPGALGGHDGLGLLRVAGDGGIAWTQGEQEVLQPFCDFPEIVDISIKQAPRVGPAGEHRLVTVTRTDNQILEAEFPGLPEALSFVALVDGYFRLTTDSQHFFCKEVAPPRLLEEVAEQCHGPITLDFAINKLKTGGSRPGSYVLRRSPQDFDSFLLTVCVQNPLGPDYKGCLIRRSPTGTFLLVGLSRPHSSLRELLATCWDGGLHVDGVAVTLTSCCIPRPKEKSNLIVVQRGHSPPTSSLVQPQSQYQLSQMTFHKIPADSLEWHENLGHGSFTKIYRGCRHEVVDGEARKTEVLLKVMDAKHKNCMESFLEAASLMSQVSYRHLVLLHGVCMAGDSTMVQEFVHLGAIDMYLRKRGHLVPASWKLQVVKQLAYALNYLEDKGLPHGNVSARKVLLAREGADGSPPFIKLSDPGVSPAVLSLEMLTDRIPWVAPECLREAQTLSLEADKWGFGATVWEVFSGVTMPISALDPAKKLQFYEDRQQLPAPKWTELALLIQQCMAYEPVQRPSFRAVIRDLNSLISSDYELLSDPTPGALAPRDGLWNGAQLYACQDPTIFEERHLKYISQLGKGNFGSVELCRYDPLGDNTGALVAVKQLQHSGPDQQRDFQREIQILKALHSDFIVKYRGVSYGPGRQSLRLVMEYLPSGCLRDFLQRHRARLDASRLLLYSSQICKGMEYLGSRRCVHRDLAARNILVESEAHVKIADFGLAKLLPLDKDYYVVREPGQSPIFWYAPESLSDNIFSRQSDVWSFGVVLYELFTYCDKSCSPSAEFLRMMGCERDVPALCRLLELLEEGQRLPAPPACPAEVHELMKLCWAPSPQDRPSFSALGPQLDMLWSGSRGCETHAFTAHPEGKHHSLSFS
Experimental: (§1) Compounds were screened for their ability to inhibit JAK using the […] below. Reactions were carried out in a kinase buffer containing 100 mM HEPES (pH 7.4), 1 mM DTT, 10 mM MgCl2, 25 mM NaCl, and 0.01% BSA.
(§2) Substrate concentrations in the assay were 5 μM ATP (200 uCi/μmole ATP) 1 μM poly(Glu)4Tyr. Reactions were carried out at 25 ° C. and 1 nM JAK3.
(§3) To each well of a 96 well polycarbonate plate was added 1.5 μl of a JAK3 inhibitor along with 50 μl of kinase buffer containing 2 μM poly(Glu)4Tyr and 10 μM ATP. This was then mixed and 50 μl of kinase buffer 2 nM JAK3 enzyme was added to start the reaction. After 20 minutes at room temperature (25C), the reaction was stopped with 50 μl of 20% trichloroacetic acid (TCA) that also contained 0.4 mM ATP. The entire contents of each well were then transferred to a 96 well glass fiber filter plate using a TomTek Cell Harvester. After washing, 60 μl of scintillation fluid was added and ^33P incorporation detected on a Perkin Elmer TopCount.

[2] = target: T2, ROCK (Homo sapiens, UniProt Q13464); assay: ROCK Inhibition Assays; conditions: read-out: ROCK enzyme inhibition (Ki)
T2 construct: ROCK I (AA 6-553)
Experimental: Compounds are screened for their ability to inhibit ROCK I (AA 6-553) activity using a standard coupled enzyme system (Fox et al. Protein Sci. 7: 2249, 1998). Reactions are carried out in a solution containing 100 mM HEPES (pH 7.5), 10 mM MgCl2, 25 mM NaCl, 2 mM DTT and 1.5% DMSO. Final substrate concentrations in the assay are 45 μM ATP (Sigma Chemicals, St Louis, Mo.) and 200 μM peptide (American Peptide, Sunnyvale, Calif.). Reactions are carried out at 30 ° C. and 45 nM ROCK I. Final concentrations of the components of the coupled enzyme system are 2.5 mM phosphoenolpyruvate, 350 μM NADH, 30 μg/ml pyruvate kinase and 10 μg/ml lactate dehydrogenase.
Compounds are screened for their ability to inhibit ROCK using a standard radioactive enzyme assay. Assays are carried out in a solution containing 100 mM HEPES (pH 7.5), 10 mM MgCl2, 25 mM NaCl, 2 mM DTT and 1.5% DMSO. Final substrate concentrations in the assay are 13 μM [γ-^33P] ATP (25 mCi ^33P ATP/mmol ATP, Perkin Elmer, Cambridge, Mass./Sigma Chemicals, St Louis, Mo.) and 27 μM Myelin Basic Protein (MBP). Final enzyme concentration in the assay is 5 nM ROCK. Assays are carried out at room temperature. 1.5 μl of DMSO stock containing serial dilutions of the compound of the present invention (concentrations ranging from 10 μM to 2.6 nM) is placed in a 96 well plate. 50 μl of Solution 1 (100 mM HEPES (pH 7.5), 10 mM MgCl2, […] [γ-^33P] ATP) is added to the plate. The reaction is initiated by addition of 50 μl of Solution 2 (100 mM HEPES (pH 7.5), 10 mM MgCl2, 4 mM DTT, […] and 10 nM ROCK). After 2 hours the reaction is quenched with 50 μL of 30% trichloroacetic acid (TCA, Fisher) containing 9 mM ATP. Transfer of 140 μL of the quenched reaction to a glass fiber filter plate (Corning, Cat. No.3511) is followed by washing 3 times with 5% TCA. 50 μL of Optima Gold scintillation fluid (Perkin Elmer) is added and the plates are counted on a Top Count (Perkin Elmer). After removing mean background values for all of the data points the data is fit using Prism software to obtain a Ki(app).

[3] = target: JAK2 (Homo sapiens, UniProt O60674); assay: JAK2 Inhibition Assay; conditions: 15 μM poly(Glu)4Tyr, 12 μM ATP; read-out: JAK2 enzyme inhibition (Ki)
Experimental: as §1, §2, §3
As described above in Example 11 except that JAK-2 enzyme is used, the final poly(Glu)4Tyr concentration is 15 μM, and final ATP concentration is 12 μM.

[4] = target: PKA (Homo sapiens, UniProt P17612); assay: PKA Inhibition Assay (coupled enzyme assay); conditions: 50 μM ATP, 80 μM Kemptide, 18 nM PKA, 30 °C
Experimental: Compounds were screened for their ability to inhibit PKA using a standard coupled enzyme assay (Fox et al., Protein Sci, 1998, 7, 2249). Assays were carried out in a mixture of 100 mM HEPES (pH 7.5), 10 mM MgCl2, 25 mM NaCl, 1 mM DTT and 3% DMSO. Final substrate concentrations in the assay were 50 μM ATP (Sigma Chemicals) and 80 μM peptide (Kemptide, American Peptide, Sunnyvale, Calif.). Assays were carried out at 30 ° C. and 18 nM PKA. Final concentrations of the components of the coupled enzyme system were 2.5 mM phosphoenolpyruvate, 300 μM NADH, 30 μg/ml pyruvate kinase and 10 μg/ml lactate dehydrogenase.
An assay stock buffer solution was prepared containing all of the reagents listed above, with the exception of ATP, and the test compound of the present invention. 55 μl of the stock solution was placed in a 96 well plate followed by addition of 2 μl of DMSO stock containing serial dilutions of the test compound of the present invention (typically starting from a final concentration of 5 μM). The plate was preincubated for 10 minutes at 30° C. and the reaction initiated by addition of 5 μl of ATP (final concentration 50 μM). Initial reaction rates were determined with a Molecular Devices SpectraMax Plus plate reader over a 15 minute time course. IC50 and Ki data were calculated from non-linear regression analysis using the Prism software package (GraphPad Prism version 3.0a for Macintosh, GraphPad Software, San Diego, Calif., USA).

T2 sequence (Q13464 6-553): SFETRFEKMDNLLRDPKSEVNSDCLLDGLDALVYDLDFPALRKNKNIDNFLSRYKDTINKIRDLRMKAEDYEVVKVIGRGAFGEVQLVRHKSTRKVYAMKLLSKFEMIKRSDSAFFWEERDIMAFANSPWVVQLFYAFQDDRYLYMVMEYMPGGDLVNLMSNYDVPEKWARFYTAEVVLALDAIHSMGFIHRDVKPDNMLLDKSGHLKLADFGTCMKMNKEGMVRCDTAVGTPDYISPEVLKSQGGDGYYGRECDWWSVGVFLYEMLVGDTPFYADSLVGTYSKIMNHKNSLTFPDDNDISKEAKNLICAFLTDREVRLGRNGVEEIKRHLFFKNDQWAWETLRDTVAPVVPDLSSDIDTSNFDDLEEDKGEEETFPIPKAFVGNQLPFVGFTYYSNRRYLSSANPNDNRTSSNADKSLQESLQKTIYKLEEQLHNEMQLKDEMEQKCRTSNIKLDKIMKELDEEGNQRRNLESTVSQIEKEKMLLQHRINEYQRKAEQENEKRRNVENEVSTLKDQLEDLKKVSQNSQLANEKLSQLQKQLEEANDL
Sequence of JAK2 (O60674 whole entry): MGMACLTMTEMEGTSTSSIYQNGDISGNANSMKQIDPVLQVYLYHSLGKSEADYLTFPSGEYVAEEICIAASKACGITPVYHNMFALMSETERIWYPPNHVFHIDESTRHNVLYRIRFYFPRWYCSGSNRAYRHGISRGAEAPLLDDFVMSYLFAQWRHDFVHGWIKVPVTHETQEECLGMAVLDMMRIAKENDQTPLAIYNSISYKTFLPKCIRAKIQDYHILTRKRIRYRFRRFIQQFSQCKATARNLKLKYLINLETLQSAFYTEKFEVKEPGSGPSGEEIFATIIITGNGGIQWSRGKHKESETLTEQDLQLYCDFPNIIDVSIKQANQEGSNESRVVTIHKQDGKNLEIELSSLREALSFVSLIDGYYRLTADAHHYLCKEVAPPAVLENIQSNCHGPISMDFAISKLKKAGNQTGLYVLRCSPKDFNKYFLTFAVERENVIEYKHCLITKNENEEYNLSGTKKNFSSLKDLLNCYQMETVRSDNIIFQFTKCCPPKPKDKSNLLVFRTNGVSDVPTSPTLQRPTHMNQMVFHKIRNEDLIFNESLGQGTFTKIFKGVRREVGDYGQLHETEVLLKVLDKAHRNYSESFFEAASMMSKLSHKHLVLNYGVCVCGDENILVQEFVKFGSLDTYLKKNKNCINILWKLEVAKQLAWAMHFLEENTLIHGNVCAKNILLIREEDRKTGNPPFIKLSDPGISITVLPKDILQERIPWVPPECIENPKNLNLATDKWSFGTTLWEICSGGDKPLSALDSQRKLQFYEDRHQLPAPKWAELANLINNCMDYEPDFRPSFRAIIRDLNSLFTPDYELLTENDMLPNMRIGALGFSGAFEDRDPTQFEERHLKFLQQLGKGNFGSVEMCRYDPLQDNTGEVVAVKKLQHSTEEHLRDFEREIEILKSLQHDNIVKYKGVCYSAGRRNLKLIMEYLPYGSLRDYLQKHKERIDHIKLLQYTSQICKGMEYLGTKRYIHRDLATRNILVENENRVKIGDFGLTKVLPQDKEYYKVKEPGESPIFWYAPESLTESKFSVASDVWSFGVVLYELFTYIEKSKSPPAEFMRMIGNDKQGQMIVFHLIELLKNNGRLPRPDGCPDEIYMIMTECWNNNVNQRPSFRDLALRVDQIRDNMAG

Ki [1] [µM]	Ki [2] [µM]	Ki [3] [µM]	Ki [4] [µM]	SMILES
0.5 to 5	0.5 to 5	0.5 to 5	0.5 to 5	CC(c1ccccc1)c1ncnc2[nH]ccc12 (stereo not drawn) [Compound 23]
> 5	0.5 to 5	> 5	0.5 to 5	COC(=O)C(C)Cc1ncnc2[nH]ccc12 (stereo not drawn) [Compound 24]
0.5 to 5	0.5 to 5	0.5 to 5	0.5 to 5	CC(C)Cc1ncnc2[nH]ccc12 [Compound 25]
< 0.5	0.5 to 5	< 0.5	0.5 to 5	c1nc(C2CC3CCC2C3)c2cc[nH]c2n1 (stereo not drawn) [Compound 26, 4-Bicyclo[2.2.1]hept-2-yl-7H-pyrrolo[2,3-d]pyrimidine]
< 0.5	0.5 to 5	< 0.5	0.5 to 5	c1nc(CC2CCCCC2)c2cc[nH]c2n1 [Compound 27]
0.5 to 5	0.5 to 5	0.5 to 5	0.5 to 5	N#CCCCCc1ncnc2[nH]ccc12 [Compound 28]
0.5 to 5	0.5 to 5	0.5 to 5	0.5 to 5	c1nc(CCC2OCCCO2)c2cc[nH]c2n1 [Compound 29]
0.5 to 5	0.5 to 5	0.5 to 5	0.5 to 5	CC(C)(C#N)CCCCc1ncnc2[nH]ccc12 [Compound 30]
< 0.5	0.5 to 5	< 0.5	0.5 to 5	CC(C)CCc1ncnc2[nH]ccc12 [Compound 31]
